Data taken from patent US20260125375A1 (Pfizer Inc., priority 2022, published 2026).
Read-outs that look alike come from different tables or passages of the source.

Target: T1, C-CBL (Homo sapiens, UniProt P22681)
T1 construct: endogenous in cells; host or cells: Jurkat HiBit-IL2 reporter cells, CBL-B knocked out by CRISPR
Assay: Jurkat HiBit-IL2 assay (CBL-B KO), reporter cell line expressing C-CBL only
Format: cell-based
Conditions: geometric mean, read-out: CBL-B KO EC50 (nM) GMean
Method in brief: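 IL-2 secretion was measured by HiBiT luminescence after 1 h compound exposure (0.1% DMSO) and 4 h TCR/CD28 stimulation (final anti-CD3 1 μg/ml, anti-CD28 2 μg/ml, 37 °C) of Jurkat reporters lacking c-CBL or CBL-B. EC50 came from fold-of-effect versus stimulated-only cells, as geometric means across tests.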

[1] = CBL-B KO (C-CBL only), anti-CD3/anti-CD28 stimulation 4 hours, Table 16a
[2] = CBL-B KO (expressing C-CBL only), Table 16b (further repetition)

For `Cn1cnnc1[C@@H](c1cccc(-c2n[nH]c3c(CN[C@@H]4CCC[C@@H]4O)nc(C(F)(F)F)cc23)c1)C1CCC1` [Example C1, (1S,2R)-2-({[3-{3-[(R)-cyclobutyl(4-methyl-4H-1,2,4-triazol-3-yl)methyl]phenyl}-5-(trifluoromethyl)-1H-pyrazolo[3,4-c]pyridin-7-yl]methyl}amino)cyclopentan-1-ol], which EC50 [1] is on record?
Its EC50 is 275 nM.

What about the EC50 [2] of the same compound?
The EC50 was 584 nM.

How did the EC50 [1] turn out when `Cn1cnnc1[C@@H](c1cccc(-c2n[nH]c3c(CN[C@H]4CCC[C@@H]4O)nc(C(F)(F)F)cc23)c1)C1CCC1` [Example C4, (1S,2S)-2-({[3-{3-[(R)-cyclobutyl(4-methyl-4H-1,2,4-triazol-3-yl)methyl]phenyl}-5-(trifluoromethyl)-1H-pyrazolo[3,4-c]pyridin-7-yl]methyl}amino)cyclopentan-1-ol] was run?
The EC50 was 1050 nM.

How did the EC50 [1] turn out when `C[C@H]1CN(Cc2nc(C(F)(F)F)cc3c(-c4cccc([C@H](c5nncn5C)C5CCC5)c4)n[nH]c23)CCO1` [Example C6, 3-{3-[(R)-cyclobutyl(4-methyl-4H-1,2,4-triazol-3-yl)methyl]phenyl}-7-{[(2S)-2-methylmorpholin-4-yl]methyl}-5-(trifluoromethyl)-1H-pyrazolo[3,4-c]pyridine] was run?
Its EC50 is 807 nM.

How did the EC50 [1] turn out when `C[C@H]1CCCN(Cc2nc(C(F)(F)F)cc3c(-c4cccc([C@H](c5nncn5C)C5CCC5)c4)n[nH]c23)C1` [Example C7, 3-{3-[(R)-cyclobutyl(4-methyl-4H-1,2,4-triazol-3-yl)methyl]phenyl}-7-{[(3S)-3-methylpiperidin-1-yl]methyl}-5-(trifluoromethyl)-1H-pyrazolo[3,4-c]pyridine] was run?
The EC50 was 519 nM.

With `C[C@H](N[C@H]1CCC(F)(F)C1)c1nc(C(F)(F)F)cc2c(-c3cccc([C@H](c4nncn4C)C4CCC4)c3)n[nH]c12` [Example C8] as the compound, how does the EC50 [1] read?
Its EC50 is 44 nM.

How did the EC50 [1] turn out when `C[C@@H](N[C@H]1CCC(F)(F)C1)c1nc(C(F)(F)F)cc2c(-c3cccc([C@H](c4nncn4C)C4CCC4)c3)n[nH]c12` [Example C9] was run?
The EC50 was 606 nM.

And the EC50 [2]?
The EC50 was 176 nM.

With `CC(NC1CCCC1)c1nc(C(F)(F)F)cc2c(-c3cccc([C@H](c4nncn4C)C4CCC4)c3)n[nH]c12` (stereo partly drawn) [Example C14, N-{(1ξ)-1-[3-{3-[(R)-cyclobutyl(4-methyl-4H-1,2,4-triazol-3-yl)methyl]phenyl}-5-(trifluoromethyl)-1H-pyrazolo[3,4-c]cyclopen-7-yl]ethyl}cyclopentanamine] as the compound, how does the EC50 [1] read?
The EC50 was 26 nM.

What about the EC50 [2] of the same compound?
The EC50 was 17 nM.

For `C[C@@H](NC1CCC1)c1nc(C(F)(F)F)cc2c(-c3cccc(C4(Cc5nncn5C)COC4)c3)n[nH]c12` [Example C16], which EC50 [1] is on record?
The EC50 was 689 nM.

Which EC50 [1] does the source give for `C[C@@H]1CCCN(Cc2nc(C(F)(F)F)cc3c(-c4cccc(C5(Cc6nncn6C)COC5)c4)n[nH]c23)C1` [Example C29, 7-{[(3R)-3-methylpiperidin-1-yl]methyl}-3-(3-{3-[(4-methyl-4H-1,2,4-triazol-3-yl)methyl]oxetan-3-yl}phenyl)-5-(trifluoromethyl)-1H-pyrazolo[3,4-c]pyridine] here?
The EC50 was 1320 nM.

`C[C@H]1CCCN(Cc2nc(C(F)(F)F)cc3c(-c4cccc(C5(Cc6nncn6C)COC5)c4)n[nH]c23)C1` [Example C30, 7-{[(3S)-3-methylpiperidin-1-yl]methyl}-3-(3-{3-[(4-methyl-4H-1,2,4-triazol-3-yl)methyl]oxetan-3-yl}phenyl)-5-(trifluoromethyl)-1H-pyrazolo[3,4-c]pyridine] was tested. Which EC50 [1] did it give?
The EC50 was 232 nM.

Which EC50 [1] does the source give for `Cn1cnnc1CC1(c2cccc(-c3n[nH]c4c(CN5CCCCC5)nc(C(F)(F)F)cc34)c2)COC1` [Example C33, 3-(3-{3-[(4-methyl-4H-1,2,4-triazol-3-yl)methyl]oxetan-3-yl}phenyl)-7-[(piperidin-1-yl)methyl]-5-(trifluoromethyl)-1H-pyrazolo[3,4-c]pyridine] here?
The EC50 was 1840 nM.

`Cn1cnnc1CC1(c2cccc(-c3n[nH]c4c(CN[C@H]5CCC(F)(F)C5)nc(C(F)(F)F)cc34)c2)COC1` [Example C38, (1S)-3,3-difluoro-N-{[3-(3-{3-[(4-methyl-4H-1,2,4-triazol-3-yl)methyl]oxetan-3-yl}phenyl)-5-(trifluoromethyl)-1H-pyrazolo[3,4-c]pyridin-7-yl]methyl}cyclopentan-1-amine] was tested. Which EC50 [1] did it give?
The EC50 was 494 nM.

For `Cn1cnnc1[C@@H](c1cccc(-c2n[nH]c3c(CN[C@H]4CCOC4)nc(C(F)(F)F)cc23)c1)C1CCC1` [Example D1, (3S)—N-{[3-{3-[(R)-cyclobutyl(4-methyl-4H-1,2,4-triazol-3-yl)methyl]phenyl}-5-(trifluoromethyl)-1H-pyrazolo[3,4-c]pyridin-7-yl]methyl}oxolan-3-amine], which EC50 [1] is on record?
The EC50 was 1890 nM.

For `Cn1cnnc1[C@@H](c1cccc(-c2n[nH]c3c(CNC4CCCC4)nc(C(F)(F)F)cc23)c1)C1CCC1` [Example D4], which EC50 [1] is on record?
Its EC50 is 479 nM.

`C[C@H](NC1CCC1)c1nc(C(F)(F)F)cc2c(-c3cccc(C4(Cc5nncn5C)COC4)c3)n[nH]c12` [Example F1, N-{(1S)-1-[3-(3-{3-[(4-methyl-4H-1,2,4-triazol-3-yl)methyl]oxetan-3-yl}phenyl)-5-(trifluoromethyl)-1H-pyrazolo[3,4-c]pyridin-7-yl]ethyl}cyclobutanamine] was tested. Which EC50 [1] did it give?
The EC50 was 60 nM.

And the EC50 [2]?
Its EC50 is 56 nM.

`C[C@H](N)c1nc(C(F)(F)F)cc2c(-c3cccc([C@H](c4nncn4C)C4CCC4)c3)n[nH]c12` [Example K12, (1S)-1-[3-{3-[(R)-cyclobutyl(4-methyl-4H-1,2,4-triazol-3-yl)methyl]phenyl}-5-(trifluoromethyl)-1H-pyrazolo[3,4-c]pyridin-7-yl]ethan-1-amine] was tested. Which EC50 [2] did it give?
The EC50 was 2080 nM.
